Source: US20230406883A1, “COMPOUNDS AND THEIR USE IN TREATMENT OF TACHYKININ RECEPTOR MEDIATED DISORDERS” (Embark Biotech ApS, priority 2020, published 2023)
Numbered stars: 1 amine (or outer) side, 2 acyl side, 3 side chain; on linkers, the order of the positions; unused ones are H or OH. Square brackets hold non-standard residues; d marks the D form. Peptide text beside a SMILES is read from it. * marks the point of attachment. C18 diacid = O=C(O)CCCCCCCCCCCCCCCCC(=O)*; γGlu = O=C(O)[C@H](CCC(=O)[*:2])N[*:1]; NMeL = CN[C@@H](CC(C)C)C(=O)O; hSer = N[C@@H](CCO)C(=O)O; Nle = CCCC[C@H](N)C(=O)O; AEEA = NCCOCCOCC(=O)O

How the values were obtained:
hNK2R = molecular target: T1, hNK2R (Homo sapiens, UniProt P21452); test: Indirect human serum albumin binding by IP3 assay, 0.2% ovalbumin vs 1% HSA; assay type: cell-based; conditions: for hNK2R, Albumin binding Efficacy (%)-ovalbumin: 0.2% ovalbumin; for hNK2R, Albumin binding Efficacy (%)-1% human serum albumin / EC50: 1% HSA; for EC50: read-out: hNK2R, Albumin binding EC50 (nM)-1% human serum albumin
T1 construct: host or cells: COS-7
T1 sequence (P21452 1-398): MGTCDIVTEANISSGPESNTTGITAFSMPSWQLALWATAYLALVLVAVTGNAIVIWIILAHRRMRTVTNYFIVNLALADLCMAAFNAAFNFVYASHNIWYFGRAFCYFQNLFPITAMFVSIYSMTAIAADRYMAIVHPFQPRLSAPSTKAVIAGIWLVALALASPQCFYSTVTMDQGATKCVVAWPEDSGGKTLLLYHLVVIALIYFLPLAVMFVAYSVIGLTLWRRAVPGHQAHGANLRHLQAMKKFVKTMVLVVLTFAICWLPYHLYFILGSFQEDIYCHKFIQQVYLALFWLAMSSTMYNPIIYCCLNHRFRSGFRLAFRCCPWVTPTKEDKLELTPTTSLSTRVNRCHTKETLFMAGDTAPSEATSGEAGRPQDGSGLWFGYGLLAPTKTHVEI
Description: Agonist-induced G-protein coupled receptor (GPCR) activation was measured by an Inositol-1,4,5-Trisphosphate [^3H] Radioreceptor Assay (IPs Assay). Assays were carried out using COS-7 cells transiently transfected by calcium phosphate transfection with a vector pcDNA3.1(+) encoding one of the indicated receptors (Genscript). Briefly, DNA mixed with CaCl2 (2 M) and TE-buffer (10 mM Tris-HCl, 1 mM EDTA, pH 7.5) was dropwise added to 2×HBS (50 mM HEPES, 280 mM NaCl, 1.5 mM NaH2PO4, pH 7.2) and incubated for 45 min at room temperature (22±2° C.). The mixture and a final concentration of 100 μM Chloroquine were added to the cells and left to incubate for 5 hours at 37° C. under standard cell culture conditions (10% CO2) before changing medium to fresh medium containing 5 μl/mL Myo-[2-^3H(N)]-inositol (labeling medium).
The indirect HSA binding IP3 assay takes advantage of the tachykinin receptors' ability to induce production of the inositol trisphosphate (IP3) second messenger upon agonist (ligand) binding on receptor expressing cells following an initial ^3H-inositol labeling period. The assay relies on the assumption that high peptide HSA binding will result in low receptor-mediated production of the second messenger IP3. Thus, the assay is an indirect assessment HSA binding.
Assay solutions used: Wash buffer (HBSS), Assay buffer 0.2% OvAlb (HBSS+10 mM LiCl and 0,2% w/v ovalbumin) or Assay buffer 1% HSA (HBSS+10 mM LiCl and 1% w/v HSA), Lysis buffer (10 mM formic acid), and SPA YSI beads (12.5 mg/ml in H2O). The assay was performed the day after transfection. Briefly, labelling medium was aspirated, and plates were washed ×1 in wash buffer before adding 100 μl assay buffer 0.2% OvAlb or assay buffer 1% HSA, pre-incubated for 30 min followed by 120 min incubation with agonist, both at 37° C. After incubation, plates were immediately placed on ice and the incubation medium was aspirated and 40 μl of 10 mM formic acid per well was added. Plates were incubated for at least 30 min on ice. 60 μl (1 mg/well) SPA YSI beads/well was pipetted into a solid white 96 wells plate and 35 μl of the lysis solution was transferred to the plate before covering plates with seal cover and shaking for 10 min. (max speed). Centrifuge plates and leave for 8 hours at room temperature before counting the plates in a MicroBeta plate counter (Perkin Elmer).

[1] = Energy expenditure screening by indirect calorimetry in diet-induced obese mice; assay type: in vivo; conditions: DIO mice, 0.5 mg/kg s.c., increase over vehicle
Description: Indirect calorimetry was used to evaluate the ability of individual peptide analogues to dose-dependently increase energy expenditure (EE) we used metabolic cages and indirect calorimetry measured by the Promethion system. To this end, oxygen consumption was used as a surrogate measure for EE. Substrate preference (fat or carbohydrate) was evaluated using the respiratory exchange ratio (RER). In parallel, behavioral information such as walking distance and water and food intake were recorded.
Prior to experimentation, DIO mice were transferred to habituation cages for at least 10 days (5 days outside and at least 5 days in the Sable Systems gas analyzer module) to acclimatize. For all in vivo compound tests for EE evaluation, mice received subcutaneous injections between 2 and 4 pm.
Energy expenditure screening: After habituation, mice were subcutaneously injected with 0.5 mg/kg peptide analogue in a volume of 2 ml/kg. Mice were injected q.a.d. (quaque altera die) and received a total of two injections. EE was evaluated and increase over vehicle was calculated as percent of mean oxygen consumption over a 30-hour period after injection. Prior to injection peptide analogues were dissolved to 0.25 mg/ml in in vivo buffer.

[2] = Intraperitoneal glucose tolerance test (ipGTT) in DIO mice; assay type: in vivo; conditions: 325 nmol/kg s.c. once, test 24 hours after treatment
Description: Glucose tolerance test: The effect on glucose tolerance was determined using intraperitoneal glucose tolerance test (ipGTT) 24 hours after single subcutaneous injection of NK2R-selective analogue in DIO mice. At day of experimentation, mice were fasted four hours prior to receiving 1 g/kg glucose diluted in saline solution ([…]) by intraperitoneal injection. Change in glucose was monitored using glucometer.

[3] = Intraperitoneal insulin tolerance test (ipITT) in DIO mice; assay type: in vivo; conditions: 325 nmol/kg s.c. once, test 24 hours after treatment
Description: Insulin tolerance test: The effect on insulin tolerance was determined using intraperitoneal insulin tolerance test (ipITT) 24 hours after single subcutaneous injection of NK2R-selective analogue in DIO mice. At day of experimentation, mice were fasted two hours prior to receiving 1.5 U/kg insulin diluted in saline solution (0.2 mL/kg) by intraperitoneal injection. Change in glucose was monitored using glucometer.

[4] = Loperamide-induced dysfunctional voiding test; assay type: in vivo; conditions: lean wild-type mice, Loperamide 5 mg/kg, compound 130, 260, 325 nmol/kg s.c.
Description: Dysfunctional voiding test: To investigate the effect on dysfunctional voiding, constipation was induced in lean wild-type, male and female, mice using Loperamide (5 mg/kg). 30 minutes after gavage, mice were subcutaneously dosed with either vehicle, 130, 260 and for males also 325 nmol/kg of EB344. 6 hours post Loperamide gavage, mice were removed from the cage and number of feces pellets were counted.

| Compound | hNK2R, Albumin binding Efficacy (%)-ovalbumin (hNK2R) [%] | hNK2R, Albumin binding Efficacy (%)-1% human serum albumin (hNK2R) | EC50 (hNK2R) [nM] | Energy expenditure (percent of vehicle; based on 30 h average vO2) [1] | Glucose tolerance (ipGTT) [2] | Insulin tolerance (ipITT) [3] | Loperamide-induced dysfunctional voiding (number of feces pellets during six hours) [4] |
| --- | --- | --- | --- | --- | --- | --- | --- |
| CCCC[C@H](NC(=O)[C@H](CC(C)C)N(C)C(=O)CNC(=O)[C@@H](NC(=O)[C@H](Cc1ccc(O)cc1)NC(=O)[C@H](CCCCN)NC(=O)[C@H](CC(=O)O)NC(=O)COCCOCCNC(=O)COCCOCCNC(=O)CC[C@H](NC(=O)CCCCCCCCCCCCCCCCC(=O)O)C(=O)O)C(C)C)C(N)=O [compound 305, *Asp;Lys;Tyr;Val;Gly;NmLeu;Nle;NH2] ({C18 diacid-γGlu-AEEA-AEEA}-DKYVG[NMeL][Nle]-NH2) | 83 | 45-51% | 260 | 9% of vehicle | – | – | – |
| COCC[C@H](NC(=O)[C@H](CC(C)C)N(C)C(=O)CNC(=O)[C@@H](NC(=O)[C@H](Cc1ccc(O)cc1)NC(=O)[C@H](CCCCN)NC(=O)[C@H](CC(=O)O)NC(=O)COCCOCCNC(=O)COCCOCCNC(=O)CC[C@H](NC(=O)CCCCCCCCCCCCCCCCC(=O)O)C(=O)O)C(C)C)C(N)=O [compound 344, *Asp;Lys;Tyr;Val;Gly;NmLeu;Metox;NH2] ({C18 diacid-γGlu-AEEA-AEEA}-DKYVG[NMeL][hSer](Me)-NH2) | 95 | 60% | 260 | – | improved both glucose and insulin tolerance | improved both glucose and insulin tolerance | improved Loperamide-induced dysfunctional voiding in a dose-dependent manner |
